Experimental data reported in ChEMBL document CHEMBL3044792, “In vitro antioxidant properties and in vivo lowering blood lipid of Forsythia suspense leaves” (Med Chem Res, 2010).
In brackets after ≈: the same amount, converted by molar mass. Activity calls are given as the source filed them. No cut-off for these calls is given here.

How the values were obtained:
Assay type in all cases: functional
[1] = Antioxidant activity assessed as ferric ion reducing activity measured as trolox equivalents by FRAP assay
[2] = Antioxidant activity assessed as ABTS radical scavenging activity
[3] = system: Radical scavenging activity; test: Antioxidant activity assessed as DPPH radical scavenging activity after 30 min
Mus musculus [4] = test: Hypolipidemic activity in high cholesterol diet fed Mus musculus KM (mouse) assessed as high density lipoprotein cholesterol at 150 mg/kg, ig for 10 days (reference value: 2.6953+/- 0,58099 mmol/l); conditions: route intragastric
Mus musculus [5] = test: Hypolipidemic activity in high cholesterol diet fed Mus musculus KM (mouse) assessed as low density lipoprotein cholesterol at 150 mg/kg, ig for 10 days (reference value: 4.2972 +/- 1.1725 mmol/l); conditions: route intragastric
Mus musculus [6] = test: Hypolipidemic activity in high cholesterol diet fed Mus musculus KM (mouse) assessed as triglyceride level at 150 mg/kg, ig for 10 days (reference value: 0.9359 +/- 0.2817 mmol/l); conditions: route intragastric
Mus musculus [7] = test: Antioxidant activity in high cholesterol diet fed Mus musculus KM (mouse) assessed as MDA level in liver at 150 mg/kg, ig for 10 days (reference value: 13.6188 +/- 4.2522 nmol/ml); conditions: route intragastric
Mus musculus [8] = test: Hypolipidemic activity in high cholesterol diet fed Mus musculus KM (mouse) assessed as total cholesterol level at 150 mg/kg, ig for 10 days (reference value: 7.3219 +/- 1.00196 mmol/l); conditions: route intragastric
Mus musculus [9] = test: Hypolipidemic activity in high cholesterol diet fed Mus musculus KM (mouse) assessed as triglyceride level at 70 mg/kg, ig for 10 days (reference value: 1.391 +/- 0.351 mmol/l); conditions: route intragastric
Mus musculus [10] = test: Hypolipidemic activity in high cholesterol diet fed Mus musculus KM (mouse) assessed as high density lipoprotein cholesterol at 70 mg/kg, ig for 10 days (reference value: 1.028 +/- 0.139 mmol/l); conditions: route intragastric
Mus musculus [11] = test: Hypolipidemic activity in high cholesterol diet fed Mus musculus KM (mouse) assessed as low density lipoprotein cholesterol at 70 mg/kg, ig for 10 days (reference value: 3.386 +/- 0.958 mmol/l); conditions: route intragastric
Mus musculus [12] = test: Hypolipidemic activity in high cholesterol diet fed Mus musculus KM (mouse) assessed as total cholesterol level at 70 mg/kg, ig for 10 days (reference value: 4.402 +/- 0.8 mmol/l); conditions: route intragastric
Mus musculus [13] = test: Antioxidant activity in high cholesterol diet fed Mus musculus KM (mouse) assessed as MDA level in liver at 70 mg/kg, ig for 10 days (reference value: 9.95 +/- 0.15 nmol/ml); conditions: route intragastric

| SMILES | Activity [1] | IC50 [2] | IC50 [3] | Activity (Mus musculus [4]) | Activity (Mus musculus [5]) | Activity (Mus musculus [6]) | Activity (Mus musculus [7]) | Activity (Mus musculus [8]) | Activity (Mus musculus [9]) | Activity (Mus musculus [10]) | Activity (Mus musculus [11]) | Activity (Mus musculus [12]) | Activity (Mus musculus [13]) |
| --- | --- | --- | --- | --- | --- | --- | --- | --- | --- | --- | --- | --- | --- |
| COc1cc([C@@H]2OC[C@@H]3[C@H]2CO[C@H]3c2ccc(O)c(OC)c2)ccc1O [(+)-PINORESINOL] | 2580 µmol/g | 3.08 µg/mL (≈ 8.59 µM) | 8.66 µg/mL (≈ 24.2 µM) |  |  |  |  |  |  |  |  |  |  |
| Cc1cc(C(C)(C)C)c(O)c(C(C)(C)C)c1 [BUTYLATED HYDROXYTOLUENE] | 1750 µmol/g | 6.04 µg/mL (≈ 27.4 µM) | 17.21 µg/mL (≈ 78.1 µM) |  |  |  |  |  |  |  |  |  |  |
| COc1cc([C@H]2OC[C@H]3[C@@H]2CO[C@H]3c2ccc(OC)c(OC)c2)ccc1O [PHILLYGENIN] | 2440 µmol/g | 3.58 µg/mL (≈ 9.61 µM) | 15.51 µg/mL (≈ 41.6 µM) | 2.4571 mmol/L | 3.1861 mmol/L | 0.3249 mmol/L | 7.9321 nmol/mL | 7.2123 mmol/L |  |  |  |  |  |
| O=c1c(O)c(-c2ccc(O)c(O)c2)oc2cc(O)cc(O)c12 [QUERCETIN] | inactive |  | 1.03 µg/mL (≈ 3.41 µM) |  |  |  |  |  |  |  |  |  |  |
| C[C@@H]1O[C@@H](OC[C@H]2O[C@@H](Oc3c(-c4ccc(O)c(O)c4)oc4cc(O)cc(O)c4c3=O)[C@H](O)[C@@H](O)[C@@H]2O)[C@H](O)[C@H](O)[C@H]1O [RUTIN] | inactive | 4.65 µg/mL (≈ 7.62 µM) | 1.83 µg/mL (≈ 3 µM) |  |  |  |  |  | 0.828 mmol/L | 1.422 mmol/L | 2.639 mmol/L | 3.124 mmol/L | 5.1 nmol/mL |
| C[C@H]1[C@H](C)CC[C@]2(C(=O)O)CC[C@]3(C)C(=CC[C@@H]4[C@@]5(C)CC[C@H](O)C(C)(C)[C@@H]5CC[C@]43C)[C@H]12 [URSOLIC ACID] | 13.6 µmol/g | Not Active | Not Active | 2.4373 mmol/L | 1.5655 mmol/L | 0.4322 mmol/L | 7.326 nmol/mL | 5.2196 mmol/L |  |  |  |  |  |
